Experimental data from patent US12133838B2, “Homotaurine-enriched compositions and methods of use for animal health” (FB Maria srl, priority 2015, dated 2024).

Legend:
elderly dogs = experiment: cognitive learning test in a maze, elderly dogs; format: in vivo, dog; conditions: for Average number of wrong tries of the aged dogs able to pass the learning test (average score) / Percentage of the aged dogs able to pass the learning test: dogs more than 10 years
From the text: (§1) The experiment began by selecting two groups of elderly dogs (age more than 10 years, 16 subjects per group) and two groups of young adult dogs (between 3 and 6 years of age, 6 subjects per group), who were divided randomly balancing them per age, seniority, and size. The dogs underwent a cognitive learning tests (Spatial reversal learning is impaired by aging in pet dogs, P. Mongillo et al., Age, 2013, 35 (6): 2273-2282), in a simple maze built to this trial. Passing the test consisted in the dog's ability to learn to get out of the labyrinth in the direction that he himself had chosen in the first successful attempt. The number of attempts has been the test score: the lower the number of attempts, better cognitive performance. Immediately after the test, two groups of dogs (one old and one young) started to receive food integration of homotaurine capsules. Homotaurine at was administered orally once daily (PO SID) at a dose of 1 g/subject. After 15 days the dogs underwent a memory test (learning result application of first test) and, if they have passed the test, to a subsequent reverse learning test, which consisted in learning to exit the labyrinth from the opposite direction to that previously learned within a defined number of trials. After 4 months of homotaurine supplementation, initial learning test was repeated, with the same modalities of the initial test. The first evaluable results regarding the comparison between the cognitive learning tests, carried out on two groups of dogs over 10 years of age, a period in which aging-correlated brain behavior changes can be observed.

young adult dogs = experiment: cognitive learning test in a maze, young adult dogs; format: in vivo, dog; conditions: young dogs (under 6 years of age), homotaurine 1 g/subject PO SID
From the text: as §1, with “After” for “After 15 days the dogs underwent a memory test (learning result application of first test) and, if they have passed the test, to a subsequent reverse learning test, which consisted in learning to exit the labyrinth from the opposite direction to that previously learned within a defined number of trials. After”, “test.” for “test. The first evaluable results regarding the comparison between the cognitive learning tests, carried out on two groups of dogs over 10 years of age, a period in which aging-correlated brain behavior changes can be observed.”

[1] = 1° test, before start of homotaurine
[2] = 2° test, after 4 months of homotaurine 1 g/subject PO SID

NCCCS(=O)(=O)O [homotaurine, 3-amino-1-propanesulfonic acid]
Average number of wrong tries of the aged dogs able to pass the learning test (average score) (elderly dogs; [1]): 6.67
Percentage of the aged dogs able to pass the learning test (elderly dogs; [1]): 75%
Average number of wrong tries of the aged dogs able to pass the learning test (average score) (elderly dogs; [2]): 5.67
Percentage of the aged dogs able to pass the learning test (elderly dogs; [2]): 75%
change of average score, second versus first test (elderly dogs; aged dogs, about four months of homotaurine 1 g/subject PO SID): −1.0
failures in the learning test (elderly dogs; first test, before start of homotaurine, aged dogs): 25%
failures in the learning test (elderly dogs; second test, about four months later, 1 g/subject PO SID, aged dogs): 25%
change of average score (young adult dogs): −2.6
